From patent US20230172894A1, “COMBINATION TREATMENT FOR FUMARATE-RELATED DISEASES” (IMCYSE SA, priority 2020, published 2023)

System: experimental auto-immune encephalomyelitis (EAE) development in mice
Experiment: Example 1 (repeated experiment): plasma neurofilament light (NF-L) levels in EAE mice, Simoa NF-light assay
Format: in vivo, female C57BL/6 mice
Settings: Example 1 regimen repeated; Day 28 plasma; vs negative control
Description: On Day 28, blood was collected from all mice into tubes containing K2EDTA and mixed gently. Blood was then centrifuged at ˜10000 g for 5 minutes. Plasma was transferred into Eppendorf tubes and stored at −80° C. until shipment to Quanterix™. Plasma Neurofilament light (NF-L) protein levels were quantified using Simoa® NF-light Advantage kit, a digital immunoassay for the quantitative determination of NF-L in serum, plasma and CSF. The used antibodies (Uman Diagnostics, Umea Sweden) also cross react with murine, bovine and macaque NF-L epitopes and as such, this assay can be used for research with these species. All samples were tested in duplicate at a dilution factor of 40×.
Neurofilament light (NF-L) is a 68 kDa cytoskeletal filament protein that is expressed in neurons, as one of the major components of the neuronal cytoskeleton that provide structural support for the axon. Neurofilaments can be released following axonal damage or neuronal degeneration.

HCPYCGWYRSPFSRVVHLYR [IMCY-0189]
plasma NF-L levels: reduced NF-L levels
